From patent US9840478B2 (MERCK SHARP & DOHME CORP., priority 2013, dated 2017)

Test system: HIV-1 (H9IIIB strain)
Test: Cell-based HIV infection assay using a reporter (Cell-Based), MT4-GFP cells
Details: Human immunodeficiency virus 1, MT4-GFP cells infected with HIV-1 H9IIIB; 50% normal human serum; mean of at least two independent experiments; read-out: Cell-based IP
Method in brief: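 MT4-GFP cells (HIV LTR-driven GFP) infected 24 h with HIV-1 H9IIIB at low MOI, then washed and plated with compounds in RPMI + 50% normal human serum, 0.4% DMSO final. Green cells counted at 24 and 48 h; R0 = 48 h/24 h ratio, inhibition normalized to DMSO and triple-drug control; IC50 from 4-parameter fit.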

Compound | IC50 [nM]
COC(=O)N[C@H](C(=O)Nc1cccc(F)c1CC[C@H]1CNCCN1S(=O)(=O)c1ccccc1)[C@@H](c1ccc(Cl)cc1)c1ccc(OC)nc1 [Example 5, Methyl ((1S,2S)-1-(4-chlorophenyl)-3-((3-fluoro-2-(2((S)-1-(phenylsulfonyl)piperizin-2-yl)ethyl)phenyl)amino)-1-(6-methoxypyridin-3-yl)-3-oxopropan-2-yl)carbamate] | 5.9
C[C@@H]1C[C@](c2ccc(Cl)cc2)([C@H](N)C(=O)Nc2cccc(F)c2CC[C@H]2CNC[C@@H](C)N2S(=O)(=O)c2ccccc2)C[C@H](C)O1 [Example 301, (S)-2-amino-2-((2R,4r,6S)-4-(4-chlorophenyl)-2,6-dimethytetrahydro-2H-pyran-4-yl)-N-(3-fluoro-2-(2-((2S,6R)-6-methyl-1-(phenylsulfonyl)piperazin-2-yl)ethyl)phenyl)acetamide] | 480
CC(C)NS(=O)(=O)N1CCNC[C@@H]1CCc1c(F)cncc1NC(=O)C[C@@H](c1ccc(F)cc1)c1cc(F)cc(F)c1 [Example 324, (3S)-3-(3,5-difluorophenyl)-N-[5-fluoro-4-(2-{(2S)-1-[(1-methylethyl)sulfamoyl]piperazin-2-yl}ethyl)pyridin-3-yl]-3-(4-fluorophenyl)propanamide] | 40
CC[C@H]1CNC[C@H](CCc2c(F)cccc2NC(=O)[C@@H](NC(=O)OC)[C@@H](c2ccc(Cl)cc2)C2CCOCC2)N1S(=O)(=O)c1ccccc1 [Example 268, methyl ((1R,2S)-1-(4-chlorophenyl)-3-((2-(2-((2S,6S)-6-ethyl-1-(phenylsulfonyl)piperazin-2-yl)ethyl)-3-fluorophenyl)amino)-3-oxo-1-(tetrahydro-2H-pyran-4-yl)propan-2-yl) carbamate] | 14
CC(C)OCC1CNC[C@H](CCc2c(F)cccc2NC(=O)[C@@H](N)[C@H](c2cccc(F)c2)c2cccc(Cl)c2)N1S(C)(=O)=O (stereo partly drawn) [Example 242, (βR)-β-(3-chlorophenyl)-3-fluoro-N-(3-fluoro-2-{2-[(2S)-6-[(1-methylethoxy)methyl]-1-(methylsulfonyl)piperazin-2-yl]ethyl}phenyl)-L-phenylalaninamide] | 220
COC(=O)N[C@H](C(=O)Nc1cncc(F)c1CC[C@H]1CNC[C@@H](C)N1S(=O)(=O)c1ccc(OC(F)(F)F)cc1)[C@@H](c1ccc(F)cc1)c1cc(F)cc(F)c1 [Example 247, (βS)-β-(3,5-difluorophenyl)-4-fluoro-N-(5-fluoro-4-{2-[(2S,6R)-6-methyl-1-{[4-(trifluoromethoxy)phenyl]sulfonyl}piperazin-2-yl]ethyl}pyridin-3-yl)-Nα-(methoxycarbonyl)-L-phenylalaninamide] | 77
COC(=O)N[C@H](C(=O)Nc1cccc(F)c1CC[C@H]1CNC[C@H](C)N1S(=O)(=O)c1ccccc1)[C@@H](c1ccc(Cl)cc1)C1CCOCC1 [Example 132, (βR)-4-chloro-N-(3-fluoro-2-{2-[(2S,6S)-6-methyl-1-(phenylsulfonyl)piperazin-2-yl]ethyl}phenyl)-Nα-(methoxycarbonyl)-β-(tetrahydro-2H-pyran-4-yl)-L-phenylalaninamide] | 11
O=C(C[C@@H](c1ccc(F)cc1)c1cc(F)cc(F)c1)Nc1cncc(F)c1CC[C@H]1CNCCN1S(=O)(=O)CC(F)(F)F [Example 315, (3S)-3-(3,5-difluorophenyl)-3-(4-fluorophenyl)-N-[5-fluoro-4-(2-{(2S)-1-[(2,2,2-trifluoroethyl)sulfonyl]piperazin-2-yl}ethyl)pyridin-3-yl]propanamide] | 1900
COC(=O)N[C@H](C(=O)Nc1cccc(F)c1CC[C@H]1CNC[C@H](C)N1S(=O)(=O)c1ccc(OC)cc1)[C@@H](c1ccc(F)cc1)c1cc(F)cc(F)c1 [Example 252, (βS)-β-(3,5-difluorophenyl)-4-fluoro-N-[3-fluoro-2-(2-{(2S,6S)-1-[(4-methoxyphenyl)sulfonyl]-6-methylpiperazin-2-yl}ethyl)phenyl]-Nα-(methoxycarbonyl)-L-phenylalaninamide] | 7.9
